# Laboratory results as given in PubChem BioAssay AID1259407 (Chemical Carcinogenesis Research Information System (CCRIS), 2018).
# Activity calls are given as the source filed them. No rule for the calls is given here.
# Tested on: CCRIS mutagenicity, Ames/micronucleus/aberration tests
# Experiment: CCRIS mutagenicity studies
# [1] = Test System: AMES SALMONELLA TYPHIMURIUM, Strain/Indicator: TA98, Metabolic Activation: NONE, Method: PREINCUBATION
# [2] = Test System: AMES SALMONELLA TYPHIMURIUM, Strain/Indicator: TA98, Metabolic Activation: NONE, Method: STANDARD PLATE
# [3] = Test System: AMES SALMONELLA TYPHIMURIUM, Strain/Indicator: TA100, Metabolic Activation: NONE, Method: PREINCUBATION
# [4] = Test System: AMES SALMONELLA TYPHIMURIUM, Strain/Indicator: TA100, Metabolic Activation: NONE, Method: STANDARD PLATE
compound,measurement,setting,value
[Cl][Pd-2]([Cl])([Cl])[Cl],mutagenic call,"Test System: AMES SALMONELLA TYPHIMURIUM, Strain/Indicator: TA97A, Metabolic Activation: NONE, Method: STANDARD PLATE",inactive; negative
same,mutagenic call,"Test System: AMES SALMONELLA TYPHIMURIUM, Strain/Indicator: TA97A, Metabolic Activation: RAT, LIVER, S-9, PHENOBARBITAL AND 5,6-BENZOFLAVONE, Method: STANDARD PLATE",inactive; negative
same,mutagenic call,"Test System: AMES SALMONELLA TYPHIMURIUM, Strain/Indicator: TA97A, Metabolic Activation: RAT, LIVER, S-9, PHENOBARBITAL AND BETA-NAPHTHOFLAVONE, Method: STANDARD PLATE",inactive; negative
same,mutagenic call,[1],inactive; negative
same,mutagenic call,[2],inactive; negative
same,mutagenic call,"Test System: AMES SALMONELLA TYPHIMURIUM, Strain/Indicator: TA98, Metabolic Activation: RAT, LIVER, S-9, AROCLOR 1254, Method: PREINCUBATION",inactive; negative
same,mutagenic call,"Test System: AMES SALMONELLA TYPHIMURIUM, Strain/Indicator: TA98, Metabolic Activation: RAT, LIVER, S-9, PHENOBARBITAL AND 5,6-BENZOFLAVONE, Method: STANDARD PLATE",inactive; negative
same,mutagenic call,"Test System: AMES SALMONELLA TYPHIMURIUM, Strain/Indicator: TA98, Metabolic Activation: RAT, LIVER, S-9, PHENOBARBITAL AND BETA-NAPHTHOFLAVONE, Method: STANDARD PLATE",inactive; negative
same,mutagenic call,[3],inactive; negative
same,mutagenic call,[4],inactive; negative
same,mutagenic call,"Test System: AMES SALMONELLA TYPHIMURIUM, Strain/Indicator: TA100, Metabolic Activation: RAT, LIVER, S-9, AROCLOR 1254, Method: PREINCUBATION",inactive; negative
same,mutagenic call,"Test System: AMES SALMONELLA TYPHIMURIUM, Strain/Indicator: TA100, Metabolic Activation: RAT, LIVER, S-9, PHENOBARBITAL AND 5,6-BENZOFLAVONE, Method: STANDARD PLATE",inactive; negative
same,mutagenic call,"Test System: AMES SALMONELLA TYPHIMURIUM, Strain/Indicator: TA100, Metabolic Activation: RAT, LIVER, S-9, PHENOBARBITAL AND BETA-NAPHTHOFLAVONE, Method: STANDARD PLATE",inactive; negative
same,mutagenic call,"Test System: AMES SALMONELLA TYPHIMURIUM, Strain/Indicator: TA102, Metabolic Activation: NONE, Method: STANDARD PLATE",inactive; negative
same,mutagenic call,"Test System: AMES SALMONELLA TYPHIMURIUM, Strain/Indicator: TA102, Metabolic Activation: RAT, LIVER, S-9, PHENOBARBITAL AND 5,6-BENZOFLAVONE, Method: STANDARD PLATE",inactive; negative
same,mutagenic call,"Test System: AMES SALMONELLA TYPHIMURIUM, Strain/Indicator: TA102, Metabolic Activation: RAT, LIVER, S-9, PHENOBARBITAL AND BETA-NAPHTHOFLAVONE, Method: STANDARD PLATE",inactive; negative
O=C1NCNC(=O)N1,mutagenic call,"Test System: AMES SALMONELLA TYPHIMURIUM, Strain/Indicator: TA98, Metabolic Activation: MAIZE SEEDLING, S-14, Method: PREINCUBATION",active; positive
same,mutagenic call,"Test System: AMES SALMONELLA TYPHIMURIUM, Strain/Indicator: TA98, Metabolic Activation: MOUSE, LIVER, S-9, Method: PREINCUBATION",active; positive
same,mutagenic call,[1],inactive; negative
same,mutagenic call,"Test System: AMES SALMONELLA TYPHIMURIUM, Strain/Indicator: TA100, Metabolic Activation: MAIZE SEEDLING, S-14, Method: PREINCUBATION",active; positive
same,mutagenic call,"Test System: AMES SALMONELLA TYPHIMURIUM, Strain/Indicator: TA100, Metabolic Activation: MOUSE, LIVER, S-9, Method: PREINCUBATION",inactive; negative
same,mutagenic call,[3],inactive; negative
same,mutagenic call,"Test System: AMES SALMONELLA TYPHIMURIUM, Strain/Indicator: TA1535, Metabolic Activation: NONE, Method: PREINCUBATION",inactive; negative
same,mutagenic call,"Test System: AMES SALMONELLA TYPHIMURIUM, Strain/Indicator: TA1537, Metabolic Activation: NONE, Method: PREINCUBATION",inactive; negative
same,mutagenic call,"Test System: AMES SALMONELLA TYPHIMURIUM, Strain/Indicator: TA1538, Metabolic Activation: NONE, Method: PREINCUBATION",inactive; negative
c1ccc2c(c1)ccc1c3c(ccc12)CCC3,mutagenic call,[4],inactive; negative
same,mutagenic call,"Test System: AMES SALMONELLA TYPHIMURIUM, Strain/Indicator: TA100, Metabolic Activation: RAT, LIVER, S-9, AROCLOR 1254, Method: STANDARD PLATE",inactive; negative
O=C1NC(=O)[C@H]2[C@H]3C=C[C@@H]([C@@H]12)[C@@H]1[C@H]2C(=O)NC(=O)[C@H]2[C@H]31,mutagenic call,"Test System: MOUSE LYMPHOMA, Strain/Indicator: L5178Y (TK+/TK-), Metabolic Activation: NONE, Method: SUSPENSION/PLATE",active; positive. reevaluation of results: inconclusive
same,mutagenic call,"Test System: MOUSE LYMPHOMA, Strain/Indicator: L5178Y (TK+/TK-), Metabolic Activation: RAT, LIVER, S-9, AROCLOR 1254, Method: SUSPENSION/PLATE",active; positive. reevaluation of results: positive
C=C1/C(=C\C=C2/CCC[C@]3(C)[C@@H]([C@H](C)CC[C@@H](O)C(C)C)CC[C@@H]23)C[C@@H](O)C[C@@H]1O,mutagenic call,[2],inactive; negative
same,mutagenic call,"Test System: AMES SALMONELLA TYPHIMURIUM, Strain/Indicator: TA98, Metabolic Activation: RAT, LIVER, S-9, PHENOBARBITAL AND 5,6-BENZOFLAVONE, Method: PREINCUBATION",inactive; negative
same,mutagenic call,[4],inactive; negative
same,mutagenic call,"Test System: AMES SALMONELLA TYPHIMURIUM, Strain/Indicator: TA100, Metabolic Activation: RAT, LIVER, S-9, PHENOBARBITAL AND 5,6-BENZOFLAVONE, Method: PREINCUBATION",inactive; negative
same,mutagenic call,"Test System: AMES SALMONELLA TYPHIMURIUM, Strain/Indicator: TA1535, Metabolic Activation: NONE, Method: STANDARD PLATE",inactive; negative
same,mutagenic call,"Test System: AMES SALMONELLA TYPHIMURIUM, Strain/Indicator: TA1535, Metabolic Activation: RAT, LIVER, S-9, PHENOBARBITAL AND 5,6-BENZOFLAVONE, Method: PREINCUBATION",inactive; negative
same,mutagenic call,"Test System: AMES SALMONELLA TYPHIMURIUM, Strain/Indicator: TA1537, Metabolic Activation: NONE, Method: STANDARD PLATE",inactive; negative
same,mutagenic call,"Test System: AMES SALMONELLA TYPHIMURIUM, Strain/Indicator: TA1537, Metabolic Activation: RAT, LIVER, S-9, PHENOBARBITAL AND 5,6-BENZOFLAVONE, Method: PREINCUBATION",inactive; negative
same,mutagenic call,"Test System: AMES SALMONELLA TYPHIMURIUM, Strain/Indicator: TA1538, Metabolic Activation: NONE, Method: STANDARD PLATE",inactive; negative
same,mutagenic call,"Test System: AMES SALMONELLA TYPHIMURIUM, Strain/Indicator: TA1538, Metabolic Activation: RAT, LIVER, S-9, PHENOBARBITAL AND 5,6-BENZOFLAVONE, Method: PREINCUBATION",inactive; negative
same,mutagenic call,"Test System: E. COLI, Strain/Indicator: WP2 UVRA, Metabolic Activation: NONE, Method: STANDARD PLATE",inactive; negative
same,mutagenic call,"Test System: E. COLI, Strain/Indicator: WP2 UVRA, Metabolic Activation: RAT, LIVER, S-9, PHENOBARBITAL AND 5,6-BENZOFLAVONE, Method: PREINCUBATION",inactive; negative
CCSc1cc(Cc2ccc(N)c(SCC)c2)ccc1N,mutagenic call,[1],inactive; negative
same,mutagenic call,"Test System: AMES SALMONELLA TYPHIMURIUM, Strain/Indicator: TA98, Metabolic Activation: RAT, LIVER, S-9, PCB, Method: PREINCUBATION",active; positive
same,mutagenic call,[3],inactive; negative
same,mutagenic call,"Test System: AMES SALMONELLA TYPHIMURIUM, Strain/Indicator: TA100, Metabolic Activation: RAT, LIVER, S-9, PCB, Method: PREINCUBATION",active; positive
